Consider 2 compounds from US20100218416A1, “HYDROXYMETHYLFURFURAL ETHERS FROM SUGARS OR HMF AND BRANCHED ALCOHOLS” (FURANIX TECHNOLOGIES B.V., priority 2007, published 2010).

Where two headings read alike, the source gives them in different places.

A short description of series [1]: Fuel solubility: miscibility in blends with commercial diesel. It counts as physicochemical. An excerpt:
Fuel solubility is a primary concern for diesel fuel applications. Not all highly polar oxygenates have good solubility in the current commercial diesel fuels.
The engine is run stationary with regular diesel initially, after which the fuel supply is switched to the 40 vol % tBMF-diesel blend.

Series [2] in a line: Oxidation stability of blend with additive free diesel fuel (NF en ISO 12205). It counts as physicochemical. The note with it: 0.1 vol % blend with additive free diesel fuel. The protocol: Likewise, oxygenated fuel additives, certainly when containing an aldehyde functional group, often reduce the oxidation stability of the base diesel fuel. A 0.1 vol % blend of tBMF with additive free diesel fuel was prepared at an outside laboratory for oxidation stability determination according to NF en ISO 12205 certified methods.

For `CCOCc1ccc(C=O)o1` [EMF, ethoxymethylfurfural, reference compound], the “miscibility with commercial diesel” value in series [1] (5 vol % blend with commercial diesel) is “completely miscible”; in series [1] (25 vol % blend with commercial diesel) it was “phase separation occurs”; in series [1] (40 vol % blend with commercial diesel), “phase separation occurs”.
Turning to `CC(C)(C)OCc1ccc(C=O)o1` [tBMF, 5-(tert-Butoxymethyl)furfural], the “oxidation stability versus reference additive-free diesel” value in series [2] is “same oxidation stability”. Besides, in series [1], the “miscibility with commercial diesel” value is listed as “completely miscible” and the “mixing or flocculation problems” value was “does not yield any mixing or flocculation problems”.
